Where two headings read alike, the source gives them in different places.
What was measured:
IL-17 production = assay: Anti-CD3e antibody induced CD4+ T cell cytokine IL-17 production in male BALB/c mice (serum ELISA); assay type: in vivo, mouse; settings: Dexamethasone treatment; serum at 1.5 h after anti-CD3e antibody
Description: Efficacy of substituted 2, 3-dihydro-1H-inden-1-one containing selected compounds on Inhibition of Anti-CD3e Antibody induced CD4^+ T cell Cytokine-IL-17 Production in Male BALB/c Mice
A quantitative analysis of mouse IL-17 sandwich ELISA was conducted from the collected serum samples (Mouse IL-17 ELISA Ready-DuoSet ELISA kit, from R&D Systems, USA). The serum samples tested were collected from mice after 1.5 h of anti-CD3e antibody challenge, before antibody challenge, the mice were treated with different doses of test compounds or Dexamethasone as mentioned above in experimental design. The capture antibody was diluted in coating buffer (1×PBS) and transferred into each well. The plate was sealed and incubated overnight at RT. The following day the wells of the plate were aspirated and washed (3 times), allowing a one minute soak time in each step. The plate was blocked using 1% BSA in PBS, sealed, and incubated in ambient conditions for not less than one hour. After the incubation period, the plate was washed as described above, and the standards and serum samples were added to the appropriate wells and incubated for two hours at RT. […] The plate was read at 450/570 nm using the Microplate Absorbance Reader (SpectraMax; M3). […] Percent inhibition of cytokine production was calculated for all groups compared to positive control.

[1] = test system: IL-17 release from CD4+ T cells; assay: Cytokine IL-17 estimation by HTRF, IL-17 release from CD4+ T cells; assay type: cell-based; settings: Homo sapiens, HTRF
[2] = Rat pharmacokinetics, intravenous bolus and oral gavage; assay type: in vivo, male Sprague Dawley rats; settings: plasma
Description: The bio-availability and pharmacokinetics of some compounds of the present invention were examined in male Sprague Dawley rats. A total of 6 male rats were used in the study. The study was performed using parallel design (n=3) with serial sampling.
Dose formulations were prepared on the day of doing. Blood samples were collected at 0.083 (only IV), 0.25, 0.5, 1, 2, 4, 8 and 24 h post-dose. At each time point, approximately 0.2 mL of blood was withdrawn from each cannulated rat through jugular vein and transferred to a pre-labeled microfuge tube containing 20 μL of […] K2EDTA per mL of blood. Following collection of blood sample, equal volume of heparinized saline was flushed into jugular vein of rat. The blood samples were centrifuged at 5000 g for 5 min at 4±2° C. The plasma was separated within 30 min of scheduled time and stored below −60° C. until bio-analysis. The plasma samples were analyzed for selected test EXAMPLES using a fixed-for purpose liquid chromatographic tandem mass spectrometric detection (LC-MS/MS) method with a lower limit of quantification of 2.21 ng/mL. The pharmacokinetic parameters for select EXAMPLES were calculated using the non-compartmental analysis tool of validated WinNonlin® software (Version 5.2).
Pharmacokinetic parameters (mean±SD; n=3) of 7 following intravenous bolus and oral gavage administration of 7 solution in male Sprague Dawley rats are shown in TABLE 4 below: […]

RORγt = target: T1, RORγt (Homo sapiens, UniProt P51449); assay: RORγt-activated IL-17A Prom/LUCPorter HEK 293 cells luciferase reporter assay; assay type: cell-based; settings: IL-17A Prom/LUCPorter HEK 293 cells transfected with RORγt, 16 h; read-out: RORγt Cell Specific
T1 construct: host or cells: IL-17A Prom/LUCPorter HEK 293 cell line (IMGENEX, IML-301)
T1 sequence (P51449 1-497 isoform P51449-2): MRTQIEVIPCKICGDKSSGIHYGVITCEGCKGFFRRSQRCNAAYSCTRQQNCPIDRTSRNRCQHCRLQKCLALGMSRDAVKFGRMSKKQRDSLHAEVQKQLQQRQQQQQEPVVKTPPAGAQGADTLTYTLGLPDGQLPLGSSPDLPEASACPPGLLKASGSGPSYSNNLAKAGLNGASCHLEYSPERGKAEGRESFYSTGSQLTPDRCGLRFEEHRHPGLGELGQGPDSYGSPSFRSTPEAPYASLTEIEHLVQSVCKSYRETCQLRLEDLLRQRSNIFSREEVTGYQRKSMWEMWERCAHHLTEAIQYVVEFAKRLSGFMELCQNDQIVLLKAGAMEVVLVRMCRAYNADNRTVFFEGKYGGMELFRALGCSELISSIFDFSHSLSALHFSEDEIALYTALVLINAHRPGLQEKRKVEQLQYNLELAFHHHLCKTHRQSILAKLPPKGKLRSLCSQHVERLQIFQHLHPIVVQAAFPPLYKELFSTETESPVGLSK

RORγ-LBD (RORγt) = target: T2, RORγ-LBD (RORγt) (Homo sapiens, UniProt P51449); assay: TR-FRET RORγt Binding Assay; settings: 6-His(GST)RORγ-LBD, SRC1_2 peptide, read-out: RORγt Binding
T2 construct: the 6-His-(GST) RORγ-LBD was used which expressed and purified from baculovirus infected Sf-21 insect cells; made in house; host or cells: baculovirus-infected Sf-21 insect cells
T2 sequence (P51449 269-508 limits assumed): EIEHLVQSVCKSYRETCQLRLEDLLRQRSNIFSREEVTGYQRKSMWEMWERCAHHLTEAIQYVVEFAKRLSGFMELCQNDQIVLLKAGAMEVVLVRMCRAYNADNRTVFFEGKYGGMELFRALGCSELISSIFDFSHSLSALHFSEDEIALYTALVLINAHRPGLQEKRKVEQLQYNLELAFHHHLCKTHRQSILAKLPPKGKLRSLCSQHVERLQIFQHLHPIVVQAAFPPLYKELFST

[3] = IV 2 mg/kg, solution, male Sprague Dawley rats, mean±SD n=3
[4] = PO 10 mg/kg, solution, male Sprague Dawley rats, mean±SD n=3

SMILES	reduction in IL-17 production compared to positive control group (IL-17 production) [%]	IC50 ([1]; CD4+ T lymphocytes, standards, read-out: IC50 of IL-17 inhibition (assay standards)) [nM]	bioavailability ([2]; male, Sprague Dawley, PO 10 mg/kg vs IV 2 mg/kg, AUCinf and nominal doses used, read-out: F (bioavailability)) [%]	AUC(0-inf) [2, 3] [ng·h/mL]	AUC(0-t) [2, 3] [ng·h/mL]	clearance [2, 3] [mL/min/kg]	half-life [2, 3] [h]	Cmax ([2]; IV 2 mg/kg, solution, male Sprague Dawley rats, mean±SD n=3, footnote b: back extrapolated concentration at time zero) [ng/mL]	AUC(0-inf) [2, 4] [ng·h/mL]	AUC(0-t) [2, 4] [ng·h/mL]	Cmax [2, 4] [ng/mL]	Tmax ([2]; PO 10 mg/kg, solution, male Sprague Dawley rats, median (min-max)) [h]	IC50 (RORγt) [nM]	IC50 ([1]; IL-17 release from CD4+ T cells, read-out: IL-17 Inhibition) [nM]	IC50 (RORγ-LBD (RORγt)) [nM]
C[C@@H]1C[C@H]2[C@@H]3CCC4=CC(=O)C=C[C@]4(C)[C@@]3(F)[C@@H](O)C[C@]2(C)[C@@]1(O)C(=O)CO [Dexamethasone, reference compound]	94	14													
COc1cc2c(cc1N1CCOCC1)CC(Cc1cccc(OC(F)(F)F)c1)C2=O (stereo not drawn) [compound 31, 6-methoxy-5-morpholino-2-(3-(trifluoromethoxy)benzyl)-2,3-dihydro-1H-inden-1-one]			19	589 ± 63.9	572 ± 57.4	57 ± 5.85	6.63 ± 4.92	1940 ± 482	558 ± 125	553 ± 124	176 ± 22.7	2	> 10000	> 1000	> 1000

Source: patent US9446047B2, “Substituted 2,3-dihydro-1H-inden-1-one retinoic acid-related orphan nuclear receptor antagonists for treating multiple sclerosis” (Arrien Pharmaceuticals LLC, priority 2013, dated 2016)
